ChEMBL document CHEMBL3879908, “Pyrrolidinone carboxamide derivatives” (2014)

Target: T1, Chemerin-like receptor 1 (Homo sapiens, UniProt Q99788)
T1 sequence (Q99788 whole entry): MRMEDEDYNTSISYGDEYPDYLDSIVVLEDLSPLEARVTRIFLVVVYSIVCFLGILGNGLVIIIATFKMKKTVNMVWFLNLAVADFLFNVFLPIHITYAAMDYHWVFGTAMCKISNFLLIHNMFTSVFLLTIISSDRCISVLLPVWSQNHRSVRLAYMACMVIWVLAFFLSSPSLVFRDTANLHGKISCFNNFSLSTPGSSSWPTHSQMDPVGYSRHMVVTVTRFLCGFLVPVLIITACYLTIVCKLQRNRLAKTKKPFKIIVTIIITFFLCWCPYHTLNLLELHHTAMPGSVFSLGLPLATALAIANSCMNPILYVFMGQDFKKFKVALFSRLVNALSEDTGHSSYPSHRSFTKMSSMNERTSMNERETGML
Experiment: Displacement of [125I]-chemerin from ChemR23 (unknown origin) transfected in mouse BaF3 cells after 3 hrs by scintillation counting method
Type: cell-based

Row | IC50 | SMILES
1 | ≤ 30 nM | Cc1cccc(C)c1N1C[C@@](CN2CCC(F)(F)C2)(C(=O)Nc2cc(C#N)cc(C(F)(F)F)c2)[C@H](C)C1=O
2 | 30 to 300 nM | Cc1cccc(C)c1N1C[C@@](CN2CCC2)(C(=O)Nc2cc(C(F)(F)F)cc(C(F)(F)F)c2)[C@H](C)C1=O
3 | ≤ 30 nM | Cc1cccc(C)c1N1C[C@@](CN(C)CC2CC2)(C(=O)Nc2cc(C(F)(F)F)cc(C(F)(F)F)c2)[C@H](C)C1=O
4 | ≤ 30 nM | Cc1cccc(C)c1N1C[C@@](CN2CCCC2)(C(=O)Nc2cc(C#N)cc(C(F)(F)F)c2)[C@H](C)C1=O
5 | 30 to 300 nM | Cc1cccc(C)c1N1C[C@@](CN(C)CC2CCC2)(C(=O)Nc2cc(C(F)(F)F)cc(C(F)(F)F)c2)[C@H](C)C1=O
6 | ≤ 30 nM | CCN(CCF)C[C@@]1(C(=O)Nc2cc(C(F)(F)F)cc(C(F)(F)F)c2)CN(c2c(C)cccc2C)C(=O)[C@H]1C
7 | ≤ 30 nM | Cc1cccc(C)c1N1C[C@@](CN(CCF)CCF)(C(=O)Nc2cc(C(F)(F)F)cc(C(F)(F)F)c2)[C@H](C)C1=O
8 | 30 to 300 nM | Cc1cccc(C)c1N1C[C@@](CN2CCC(F)(F)C2)(C(=O)Nc2cc(C3CC3)cc(C(F)(F)F)c2)[C@H](C)C1=O
9 | ≤ 30 nM | Cc1cccc(C)c1N1C[C@@](CN(CCF)CC2CC2)(C(=O)Nc2cc(C(F)(F)F)cc(C(F)(F)F)c2)[C@H](C)C1=O
10 | ≤ 30 nM | CCN(CC)C[C@@]1(C(=O)Nc2cc(C#N)cc(C(F)(F)F)c2)CN(c2c(C)cccc2C)C(=O)[C@H]1C
11 | 30 to 300 nM | Cc1cccc(C)c1N1C[C@@](CN(C)C(C)C)(C(=O)Nc2cc(C3CC3)cc(C(F)(F)F)c2)[C@H](C)C1=O
12 | 30 to 300 nM | Cc1cccc(C)c1N1C[C@@](CN2CCOCC2)(C(=O)Nc2cc(C#N)cc(C(F)(F)F)c2)[C@H](C)C1=O
13 | 30 to 300 nM | Cc1cccc(C)c1N1C[C@@](CN2CCN(CC(F)(F)F)CC2)(C(=O)Nc2cc(F)cc(C(F)(F)F)c2)[C@H](C)C1=O
14 | ≤ 30 nM | Cc1cccc(C)c1N1C[C@@](CN2CCCCC2)(C(=O)Nc2cc(C#N)cc(C(F)(F)F)c2)[C@H](C)C1=O
15 | ≤ 30 nM | CCN(CC1CC1)C[C@@]1(C(=O)Nc2cc(C(F)(F)F)cc(C(F)(F)F)c2)CN(c2c(C)cccc2C)C(=O)[C@H]1C
16 | ≤ 30 nM | Cc1cccc(C)c1N1CC(CN2CCCC2)(C(=O)Nc2cc(C3CC3)cc(C(F)(F)F)c2)CC1=O (stereo not drawn)
17 | ≤ 30 nM | Cc1cccc(C)c1N1C[C@@](CN(C)CC(C)C)(C(=O)Nc2cc(OC(C)C)cc(C(F)(F)F)c2)[C@H](C)C1=O
18 | 30 to 300 nM | Cc1cccc(C)c1N1C[C@@](CN2CCC(F)CC2)(C(=O)Nc2cc(C(F)(F)F)cc(C(F)(F)F)c2)[C@H](C)C1=O
19 | ≤ 30 nM | Cc1cccc(C)c1N1C[C@@](CN(C)CC(C)C)(C(=O)Nc2cc(C(F)F)cc(C(F)(F)F)c2)[C@H](C)C1=O
20 | 30 to 300 nM | Cc1cccc(C)c1N1C[C@@](CN2CCOCC2)(C(=O)Nc2cc(C3CC3)cc(C(F)(F)F)c2)[C@H](C)C1=O
21 | 30 to 300 nM | CCc1cc(NC(=O)[C@]2(CN3CCC(F)(F)CC3)CN(c3c(C)cccc3C)C(=O)[C@H]2C)cc(C(F)(F)F)c1
22 | 30 to 300 nM | Cc1cccc(C)c1N1C[C@@](CN2CCO[C@H](C)C2)(C(=O)Nc2cc(C#N)cc(C(F)(F)F)c2)[C@H](C)C1=O
23 | ≤ 30 nM | Cc1cccc(C)c1N1C[C@@](CN(C)CC(F)(F)F)(C(=O)Nc2cc(C#N)cc(C(F)(F)F)c2)[C@H](C)C1=O

Row | IC50 | SMILES
24 | ≤ 30 nM | Cc1cccc(C)c1N1C[C@@](CN(C)CCCCF)(C(=O)Nc2cc(C(F)(F)F)cc(C(F)(F)F)c2)[C@H](C)C1=O
25 | ≤ 30 nM | Cc1cccc(C)c1N1C[C@@](CN2CCC(F)CC2)(C(=O)Nc2cc(C#N)cc(C(F)(F)F)c2)[C@H](C)C1=O
26 | 30 to 300 nM | Cc1cccc(C)c1N1C[C@@](CN2CCC(F)(F)CC2)(C(=O)Nc2cc(C#N)cc(C(F)(F)F)c2)[C@H](C)C1=O
27 | ≤ 30 nM | CCCN(CC)C[C@@]1(C(=O)Nc2cc(C(F)(F)F)cc(C(F)(F)F)c2)CN(c2c(C)cccc2C)C(=O)[C@H]1C
28 | ≤ 30 nM | CCCN(C)C[C@@]1(C(=O)Nc2cc(C(F)(F)F)cc(C(F)(F)F)c2)CN(c2c(C)cccc2C)C(=O)[C@H]1C
29 | ≤ 30 nM | Cc1cccc(C)c1N1C[C@@](CN(C)CC(C)C)(C(=O)Nc2cc(C(F)(F)F)cc(C(F)(F)F)c2)[C@H](C)C1=O
30 | ≤ 30 nM | Cc1cccc(C)c1N1C[C@@](CN(C)C2CCCCC2)(C(=O)Nc2cc(C(F)(F)F)cc(C(F)(F)F)c2)[C@H](C)C1=O
31 | ≤ 30 nM | Cc1cccc(C)c1N1C[C@@](CN(C)CC(C)(C)C)(C(=O)Nc2cc(C(F)(F)F)cc(C(F)(F)F)c2)[C@H](C)C1=O
32 | 30 to 300 nM | Cc1cccc(C)c1N1C[C@@](CN(C)CC(C)C)(C(=O)Nc2cc(C3CC3)cc(C(F)(F)F)c2)[C@H](C)C1=O
33 | 30 to 300 nM | Cc1cccc(C)c1N1C[C@@](CN2CCC(F)(F)CC2)(C(=O)Nc2cc(Cl)cc(C(F)(F)F)c2)[C@H](C)C1=O
34 | 30 to 300 nM | Cc1cccc(C)c1N1C[C@@](CN2CCCC(F)(F)C2)(C(=O)Nc2cc(C(F)(F)F)cc(C(F)(F)F)c2)[C@H](C)C1=O
35 | 30 to 300 nM | CCN(CC)C[C@@]1(C(=O)Nc2cc(OC(C)C)cc(C(F)(F)F)c2)CN(c2c(C)cccc2C)C(=O)[C@H]1C
36 | ≤ 30 nM | CCN(C[C@@]1(C(=O)Nc2cc(C#N)cc(C(F)(F)F)c2)CN(c2c(C)cccc2C)C(=O)[C@H]1C)C(C)C
37 | 30 to 300 nM | COC1CCN(C[C@@]2(C(=O)Nc3cc(C#N)cc(C(F)(F)F)c3)CN(c3c(C)cccc3C)C(=O)[C@H]2C)CC1
38 | ≤ 30 nM | Cc1cccc(C)c1N1C[C@@](CN(CCF)CC(C)C)(C(=O)Nc2cc(C(F)(F)F)cc(C(F)(F)F)c2)[C@H](C)C1=O
39 | 30 to 300 nM | Cc1cccc(C)c1N1C[C@@](CN(C)CC2CC2)(C(=O)Nc2cc(C#N)cc(C(F)(F)F)c2)[C@H](C)C1=O
40 | ≤ 30 nM | Cc1cccc(C)c1N1C[C@](C(=O)Nc2cc(C(F)(F)F)cc(C(F)(F)F)c2)(N(C)C)CC1=O
41 | ≤ 30 nM | CCN(C)C[C@@]1(C(=O)Nc2cc(C(F)(F)F)cc(C(F)(F)F)c2)CN(c2c(C)cccc2C)C(=O)[C@H]1C
42 | 30 to 300 nM | Cc1cccc(C)c1N1C[C@@](CN2CCC(F)(F)CC2)(C(=O)Nc2cc(F)cc(C(F)(F)F)c2)[C@H](C)C1=O
43 | 30 to 300 nM | Cc1cccc(C)c1N1C[C@@](CN2CCCCC2)(C(=O)Nc2cc(C3CC3)cc(C(F)(F)F)c2)[C@H](C)C1=O
44 | ≤ 30 nM | Cc1cccc(C)c1N1C[C@@](CN(C)CC(F)F)(C(=O)Nc2cc(C(F)(F)F)cc(C(F)(F)F)c2)[C@H](C)C1=O
45 | 30 to 300 nM | COCCN(C)C[C@@]1(C(=O)Nc2cc(C#N)cc(C(F)(F)F)c2)CN(c2c(C)cccc2C)C(=O)[C@H]1C
46 | ≤ 30 nM | Cc1cccc(C)c1N1C[C@@](CN(C)C2CCC2)(C(=O)Nc2cc(C(F)(F)F)cc(C(F)(F)F)c2)[C@H](C)C1=O

Row | IC50 | SMILES
47 | 30 to 300 nM | CCN(C)C[C@@]1(C(=O)Nc2cc(C3CC3)cc(C(F)(F)F)c2)CN(c2c(C)cccc2C)C(=O)[C@H]1C
48 | ≤ 30 nM | CCN(CC(F)(F)F)C[C@@]1(C(=O)Nc2cc(C#N)cc(C(F)(F)F)c2)CN(c2c(C)cccc2C)C(=O)[C@H]1C
49 | ≤ 30 nM | CCN(C[C@@]1(C(=O)Nc2cc(C(F)(F)F)cc(C(F)(F)F)c2)CN(c2c(C)cccc2C)C(=O)[C@H]1C)C(C)C
50 | ≤ 30 nM | CCN(C)C[C@@]1(C(=O)Nc2cc(C#N)cc(C(F)(F)F)c2)CN(c2c(C)cccc2C)C(=O)[C@H]1C
51 | ≤ 30 nM | Cc1cccc(C)c1N1C[C@@](CN(C)C)(C(=O)Nc2cc(C#N)cc(C(F)(F)F)c2)[C@H](C)C1=O
52 | ≤ 30 nM | Cc1cccc(C)c1N1C[C@@](CN(C)C(C)C)(C(=O)Nc2cc(C(F)(F)F)cc(C(F)(F)F)c2)[C@H](C)C1=O
53 | ≤ 30 nM | Cc1cccc(C)c1N1C[C@@](CN(C)CCF)(C(=O)Nc2cc(C(F)(F)F)cc(C(F)(F)F)c2)[C@H](C)C1=O
54 | ≤ 30 nM | COCC(C)(C)N(C)C[C@@]1(C(=O)Nc2cc(C(F)(F)F)cc(C(F)(F)F)c2)CN(c2c(C)cccc2C)C(=O)[C@H]1C
55 | 30 to 300 nM | Cc1cccc(C)c1N1C[C@@](CN2CCC(F)(F)C2)(C(=O)Nc2cc(C(F)(F)F)cc(C(F)(F)F)c2)[C@H](C)C1=O
56 | 30 to 300 nM | Cc1cccc(C)c1N1C[C@@](CN2CCOC[C@H]2C)(C(=O)Nc2cc(C(F)(F)F)cc(C(F)(F)F)c2)[C@H](C)C1=O
57 | ≤ 30 nM | Cc1cccc(C)c1N1C[C@@](CN2CCC(F)(F)CC2)(C(=O)Nc2cc(C(F)(F)F)cc(C(F)(F)F)c2)[C@H](C)C1=O
58 | ≤ 30 nM | Cc1cccc(C)c1N1C[C@@](CN(C)CC(F)(F)F)(C(=O)Nc2cc(C(F)(F)F)cc(C(F)(F)F)c2)[C@H](C)C1=O
59 | 30 to 300 nM | CCN(CC)C[C@@]1(C(=O)Nc2cc(Cl)cc(C(F)(F)F)c2)CN(c2c(C)cccc2C)C(=O)[C@H]1C
60 | 30 to 300 nM | Cc1cccc(C)c1N1C[C@@](CN(C)C(C)(C)CO)(C(=O)Nc2cc(C(F)(F)F)cc(C(F)(F)F)c2)[C@H](C)C1=O
61 | ≤ 30 nM | Cc1cccc(C)c1N1C[C@@](CN(C)C(C)C)(C(=O)Nc2cc(C#N)cc(C(F)(F)F)c2)[C@H](C)C1=O
62 | ≤ 30 nM | CCN(CC(C)C)C[C@@]1(C(=O)Nc2cc(C(F)(F)F)cc(C(F)(F)F)c2)CN(c2c(C)cccc2C)C(=O)[C@H]1C
63 | ≤ 30 nM | Cc1cccc(C)c1N1C[C@@](CN2CCC(F)(F)CC2)(C(=O)Nc2cc(OC(C)C)cc(C(F)(F)F)c2)[C@H](C)C1=O
64 | 30 to 300 nM | COCCN(C)C[C@@]1(C(=O)Nc2cc(C(F)(F)F)cc(C(F)(F)F)c2)CN(c2c(C)cccc2C)C(=O)[C@H]1C
65 | 30 to 300 nM | Cc1cccc(C)c1N1C[C@@](CN(C)C2CCC2)(C(=O)Nc2cc(OC(C)C)cc(C(F)(F)F)c2)[C@H](C)C1=O
66 | 30 to 300 nM | Cc1cccc(C)c1N1C[C@@](CN(C)C)(C(=O)Nc2cc(C3CC3)cc(C(F)(F)F)c2)[C@H](C)C1=O
67 | 30 to 300 nM | Cc1cccc(C)c1N1C[C@@](CN2CCC2)(C(=O)Nc2cc(C#N)cc(C(F)(F)F)c2)[C@H](C)C1=O
68 | ≤ 30 nM | CCN(CC)C[C@@]1(C(=O)Nc2cc(C3CC3)cc(C(F)(F)F)c2)CN(c2c(C)cccc2C)C(=O)[C@H]1C
